# Results as given in patent US20240052005A1, “IMPROVED CELL-PENETRATING PEPTIDES AND FUSION PROTEINS” (ANASTASIS BIOTEC LIMITED, priority 2020, published 2024).
# “Also recorded” adds a separate entry of the source.
# B1: MAML: unmodified recombinant MAML protein bearing a HIS-Tag (protein)
# chain: LPRHSAVMERLRRRIELCRRHHSTCEARYEAVSPERLELERQHTFALHQRCIQAKAKRAGKH
# modifications: also: His-tag, place not given here
# Legend:
# [1] = tested on: Human cell-line SKOV3; experiment: Cell transduction visualised with FITC-conjugated anti-HIS antibody; assay type: cell-based; settings: 0.01 mg/mL, 1 hour at 37° C.
# Protocol: Human cell-line SKOV3 was cultured in DMEM media with 10% serum at 37° C., 5% CO2 until 40% confluency in a 96-well culture dish. The media was removed and replaced with 0.1 mL tissue culture-grade PBS and unmodified ANTP, unmodified MAML and ANTP-PEG-2-MAML were added to a final concentration of 0.01 mg/mL. Cell transduction was allowed to proceed for 1 hour at 37° C. Next, the PBS was removed and replaced with DMEM/serum and the cells were grown overnight as above. The transduced cells were then fixed using 1% glutaraldehyde at room temperature for 1 hr and permeabilized using Saponin at 1% concentration for 20 minutes at room temperature. Cells were then washed with PBS and visualized using FITC-conjugated-anti-HIS antibody (Miltenyi Biotech). Imaging was done using a GE-Incell-500 analyser visualizing the green fluorescence of the FITC at around 525 nm. […] This confirms the functionality of the ANTP-PEG-2-MAML protein.
# [2] = tested on: SKOV-3 tumour cells; experiment: Intranuclear trafficking into cancer cells, scored by immunofluorescence; assay type: cell-based, human; settings: free protein alone
# Text: FIG. 2 Intranuclear trafficking of ANTP and ANTP-p21 conjugates into the nuclei of SKOV-3 tumour cells.
# Cells, into which the protein had penetrated intranuclearly, were scored positive by immunofluorescence.
Molecule,MAML-His protein seen inside the cell cytosol and cell nucleus [1],cellular uptake / translocation to the nuclei [2]
"ANTP: Antennapedia cell-penetrating peptide, 60 amino acid sequence, recombinant",not,
p21: free tumour-suppressor protein p21,,No cellular uptake; also recorded: did not translocate to the nuclei
B1,not,
